Test results: patent US20190351076A1, “TUMOR CELL XENOGRAFT MODEL IN ZEBRAFISH, AND METHODS OF CONSTRUCTING AND USING THE SAME” (NANJING EMORY BIOTECHNOLOGY CO., LTD., priority 2017, published 2019)

How the values were obtained:
[1] = tested on: SGC-7901; test: Human gastric cancer cell line xenograft model in zebrafish (SGC-7901); format: in vivo; details: SGC-7901 xenograft; 4000 μM and 400 μM soak for three days; day 7 after injection
Protocol: (§1) 4000 μM and 400 μM5-FU were used to soak the zebrafish embryos injected with gastric cancer cell lines (SGC-7901 and AGS) (constructed as in Example 1) for three consecutive days, and 0.1% DMSO was used as a solvent control.
(§2) The red cells were photographed under a fluorescence microscope, and the red fluorescence intensity was quantified by Image Pro Plus software to calculate the anti-tumor effect of 5-FU by a formula: Tumor inhibition rate of the drug=(the fluorescence intensity of the treatment group/the fluorescence intensity of the control group)*100% (see FIG. 4).

[2] = tested on: gastric cancer; test: Clinical outcome of 5-FU treatment in the gastric cancer patients; format: in vivo, human
[3] = tested on: patient-derived primary gastric cancer cells; test: Patient-derived gastric cancer cell xenograft model in zebrafish, fluorescence quantification; format: in vivo, human; details: 4000 μM and 400 μM soak for three days, day 7 after the injection
Protocol: (§3) The patient-derived clinical tissue biopsy that was a surgical specimen of gastric cancer was placed in physiological saline. The blood clot, necrotic tissue, fat and connective tissues on the surface of the tumor tissue were removed under aseptic conditions. The tissue was cut by an ophthalmic scissor after sterilization, and washed 2 times with sterile phosphate buffer (pH 7.4). A small amount of phosphate buffer was added, and the tissue was repeatedly cut with an ophthalmic scissor until the tissue became a paste and was about 1 mm^3. 0.25% trypsin was added and the tissue was digested at 37° C. for 10 minutes. […] The cells were re-suspended in RPMI-1640 medium containing 10% FBS (fetal calf serum).
(§4) The primary cells obtained by dissociation were stained with CM-Dil, where the final dye concentration was 2 μg/ml, and the staining time was 1 hour. The dye was removed by centrifugation, and the cells were washed with a phosphate buffer and re-suspended to a cell density of 1×10^4/μl.
(§5) The stained cells were filled into a microinjector. […]
Within 7 days after the injection, the growth, metastasis and spread of the cells derived from the patient in the zebrafish were observed under a fluorescence microscopy and photographed. […]

[4] = tested on: AGS; test: Human gastric cancer cell line xenograft model in zebrafish (AGS); format: in vivo; details: 4000 μM and 400 μM soak for three days, day 7 after injection
Protocol: as §1, §2

[5] = tested on: zebrafish embryos; details: zebrafish embryos two days after fertilization, treated for 3 days
Protocol: For the quantitative analysis, the antitumor effect is calculated according to the following formula: the tumor inhibition rate of the drug=(the fluorescence intensity of the treatment group/the fluorescence intensity of the control group)*100%.
1. Four groups, each group having four randomly selected zebrafish embryos that were two days old after fertilization, were placed in a solution of curcumin containing 0.1% DMSO. The curcumin concentrations were 10 μM, 30 μM, 50 μM, and 70 μM, respectively, and the treatment was continued for 3 days.

[6] = tested on: patient-derived primary lung cancer cells; test: Patient-derived lung cancer cell xenograft model in zebrafish, fluorescence quantification; format: in vivo, human; details: 50-μM and 5-μM soak for three days, day 7 after the injection
Protocol: as §3, with “lung” for “gastric”, “mm^3 in size.” for “mm^3.”, “resuspended” for “re-suspended”
as §4, §5
Within 4 days after the injection, the growth, metastasis and spread of the cells derived from the patient in the zebrafish were observed under a fluorescence microscopy and photographed. […]

[7] = tested on: A549; test: Human lung cancer cell line xenograft model in zebrafish (A549); format: in vivo; details: 50 μM and 5 μM soak for three days, day 7 after injection
[8] = tested on: lung cancer; test: Clinical outcome of drug treatment in the lung cancer patients; format: in vivo, human

In the case of `O=c1[nH]cc(F)c(=O)[nH]1` [5-FU, 5-fluorouracil], the “sensitivity of gastric cancer cell line to 5-FU” value [1] is reported as “sensitive”, the “clinical effect of 5-FU in the treatment of the patients” value ([2]; #1 and #2 patients with gastric cancer) is reported as “not significant” and the “clinical symptoms after treatment with 5-FU” value ([2]; #3 and #4 patients with gastric cancer) is reported as “significantly improved”. For the same compound, the “sensitivity of patient-derived gastric cancer cells to 5-FU (tumor inhibition effect)” value ([3]; #1 and #2 patients) was “not sensitive”, the “sensitivity of patient-derived gastric cancer cells to 5-FU (tumor proliferation inhibition)” value ([3]; #3 and #4 patients) was “sensitive” and the “sensitivity of gastric cancer cell line to 5-FU” value [4] was “sensitive”.

In the case of `COc1cc(/C=C/C(=O)CC(=O)/C=C/c2ccc(O)c(OC)c2)ccc1O` [curcumin], the “highest concentration within the safe range for embryos” value [5] is reported as 50 µM.

With `CC(=O)O[C@@]12CO[C@@H]1C[C@H](O)[C@@]1(C)C(=O)[C@H](O)C3=C(C)[C@@H](OC(=O)[C@H](O)[C@@H](NC(=O)OC(C)(C)C)c4ccccc4)C[C@@](O)([C@@H](OC(=O)c4ccccc4)[C@H]21)C3(C)C` [docetaxel] the “highest concentration within the safe range for embryos” value [5] was 10 µM.

`COc1cc2ncnc(Nc3ccc(F)c(Cl)c3)c2cc1OCCCN1CCOCC1` [gefitinib] was tested, and the “sensitivity of patient-derived lung cancer cells to gefitinib (tumor inhibition effect)” value ([6]; *5 and *6 patients) was “sensitive”, the “sensitivity of patient-derived lung cancer cells to gefitinib” value ([6]; *7 and *8 patients) was “not sensitive” and the “sensitivity of lung cancer cell line to gefitinib” value [7] was “sensitive”. The “clinical effect of gefitinib in the treatment of the patients” value ([8]; *5 and *6 patients with lung cancer) was “significant”, the “clinical symptoms after treatment” value ([8]; *7 and *8 patients with lung cancer) was “not significantly improved” and the “highest concentration within the safe range for embryos” value [5] was 50 µM.
